Molecular target: full-length human His-tagged BTK (Homo sapiens (Human), UniProt Q06187)
Assay: BTK HTRF assay (Cisbio KinEASE-TK)
Type: biochemical
Conditions: 6 nM BTK, 30 uM ATP, 15 min preincubation
Experimental: An HTRF assay (Cisbio KinEASE-TK cat #62TK0PEC) was performed to quantitate the ability of test compounds to inhibit BTK mediated phosphorylation of substrate. Assays were assembled in 384 well plates where 6 nM of full-length human His-tagged BTK (Life Technologies cat # PV3587) and test compound at varying concentrations were preincubated for 15 minutes at 28° C. Then, 1 uM of TK substrate-biotin and 30 uM ATP were added and incubated for an additional 30 minutes at 28° C.

Chain of full-length human His-tagged BTK (Q06187 whole entry): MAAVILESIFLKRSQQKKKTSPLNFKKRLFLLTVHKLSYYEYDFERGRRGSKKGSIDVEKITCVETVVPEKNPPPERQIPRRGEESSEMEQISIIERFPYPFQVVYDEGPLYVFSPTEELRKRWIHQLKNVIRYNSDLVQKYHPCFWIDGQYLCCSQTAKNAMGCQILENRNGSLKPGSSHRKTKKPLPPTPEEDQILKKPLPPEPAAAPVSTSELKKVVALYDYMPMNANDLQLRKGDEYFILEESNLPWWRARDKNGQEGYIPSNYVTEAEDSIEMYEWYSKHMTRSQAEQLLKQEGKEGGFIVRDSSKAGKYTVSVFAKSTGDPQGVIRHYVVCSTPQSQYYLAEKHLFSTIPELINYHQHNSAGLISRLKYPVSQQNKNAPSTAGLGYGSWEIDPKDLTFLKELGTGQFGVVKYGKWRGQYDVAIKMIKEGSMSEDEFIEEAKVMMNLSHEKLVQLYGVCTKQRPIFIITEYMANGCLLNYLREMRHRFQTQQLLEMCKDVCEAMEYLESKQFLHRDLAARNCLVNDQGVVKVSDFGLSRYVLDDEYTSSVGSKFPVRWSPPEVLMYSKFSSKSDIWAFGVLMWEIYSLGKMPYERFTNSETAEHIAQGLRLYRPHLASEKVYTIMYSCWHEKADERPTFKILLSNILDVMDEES

Structure (SMILES): C=CC(=O)N1CC[C@]2(C1)C[C@H](n1nc(-c3ccc(OC)cc3Cl)c(C(N)=O)c1N)C2 [Example 159]
- IC50: 20 nM
